pEC50: −log10 of the molar value.
Key:
[1] = Allosteric inhibition of HCV genotype 1a NS5A infected in human W11.8 cells assessed as reduction in viral RNA replication after 4 days by ELISA
Nonstructural protein 5A = molecular target: T1, Nonstructural protein 5A (UniProt Q5L478); experiment: Allosteric inhibition of HCV genotype 1b NS5A infected in human l389lucubi- neo/NS3-375.1-containing Huh7ET cells assessed as RNA replication/translation after 4 days by luciferase reporter gene assay
T1 sequence (Q5L478 whole entry): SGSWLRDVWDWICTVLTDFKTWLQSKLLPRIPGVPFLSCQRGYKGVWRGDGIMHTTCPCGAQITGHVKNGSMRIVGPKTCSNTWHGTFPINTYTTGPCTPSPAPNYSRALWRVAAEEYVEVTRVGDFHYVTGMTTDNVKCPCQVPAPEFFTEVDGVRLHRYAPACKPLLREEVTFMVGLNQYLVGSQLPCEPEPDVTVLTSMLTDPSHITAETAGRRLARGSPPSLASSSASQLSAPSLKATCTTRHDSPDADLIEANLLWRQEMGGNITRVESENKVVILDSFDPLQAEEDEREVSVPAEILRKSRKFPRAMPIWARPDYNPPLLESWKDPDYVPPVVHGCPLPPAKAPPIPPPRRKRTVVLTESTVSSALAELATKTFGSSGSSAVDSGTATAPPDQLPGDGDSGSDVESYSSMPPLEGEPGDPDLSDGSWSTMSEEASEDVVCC

[2] = Allosteric inhibition of HCV genotype 1b NS5A infected in human l389lucubi- neo/NS3-375.1-containing Huh7ET cells assessed as RNA replication/translation after 4 days in presence of 40% human serum by luciferase reporter gene assay
[3] = Allosteric inhibition of HCV genotype 1b NS5A infected in human l389lucubi- neo/NS3-375.1-containing Huh7ET cells assessed as RNA replication/translation after 4 days by luciferase reporter gene assay

Work on `CC(C)(C)C#Cc1cc(N(CC(=O)N2CCOCC2)C(=O)[C@H]2CC[C@H](C)CC2)c(C(=O)O)s1` yielded a pEC50 [1] of 7.43, a pEC50 (Nonstructural protein 5A) of 7.64 and a pEC50 [2] of 6.47.
`CC(C)(C)C#Cc1cc(N(CC(=O)N2CCCC2)C(=O)[C@H]2CC[C@H](C)CC2)c(C(=O)O)s1` gave a pEC50 [1] of 7.49 and a pEC50 [3] of 7.68.
With `C[C@@H](C(=O)N(C)C)N(c1cc(C#CC(C)(C)C)sc1C(=O)O)C(=O)[C@H]1CC[C@H](C)CC1` the pEC50 [1] was 8.15 and the pEC50 [3] was 8.30.
Molecule `CC[C@@H](C(=O)N(C)C)N(c1cc(C#CC(C)(C)C)sc1C(=O)O)C(=O)[C@H]1CC[C@H](C)CC1` has a pEC50 [1] of 7.62 and a pEC50 [3] of 7.80.
Work on `COC1CCN(C(=O)CN(c2cc(C#CC(C)(C)C)sc2C(=O)O)C(=O)[C@H]2CC[C@H](C)CC2)CC1` yielded a pEC50 [3] of 7.77.
Work on `CC(C)(C)C#Cc1cc(N(CC(=O)N2CCC(O)CC2)C(=O)[C@H]2CC[C@H](C)CC2)c(C(=O)O)s1` yielded a pEC50 [3] of 7.19.
`CCN(CC)C(=O)CN(c1cc(C#CC(C)(C)C)sc1C(=O)O)C(=O)[C@H]1CC[C@H](C)CC1` gave a pEC50 [1] of 7.29 and a pEC50 [3] of 7.64.
`CN(C)C(=O)CN(c1cc(C#CC(C)(C)C)sc1C(=O)O)C(=O)[C@H]1CC[C@H](C)CC1` showed a pEC50 [1] of 7.46 and a pEC50 [3] of 7.92.
In the case of `COC[C@@H](C(=O)N(C)C)N(c1cc(C#CC(C)(C)C)sc1C(=O)O)C(=O)[C@H]1CC[C@H](C)CC1`, the pEC50 [1] was 7.96 and the pEC50 [3] was 8.15.
Molecule `CCC[C@@H](C(=O)N(C)C)N(c1cc(C#CC(C)(C)C)sc1C(=O)O)C(=O)[C@H]1CC[C@H](C)CC1` has a pEC50 [3] of 7.85.
With `C[C@H](C(=O)N(C)C)N(c1cc(C#CC(C)(C)C)sc1C(=O)O)C(=O)[C@H]1CC[C@H](C)CC1` the pEC50 [3] was 6.96.
`CC(C)(C)C#Cc1cc(N(CC(=O)N2CCCCC2)C(=O)[C@H]2CC[C@H](C)CC2)c(C(=O)O)s1` gave a pEC50 [3] of 7.17.
`CN(C)C(=O)[C@H](CO)N(c1cc(C#CC(C)(C)C)sc1C(=O)O)C(=O)[C@H]1CC[C@H](C)CC1` gave a pEC50 [3] of 7.22.
`CNC(=O)CN(c1cc(C#CC(C)(C)C)sc1C(=O)O)C(=O)[C@H]1CC[C@H](C)CC1` showed a pEC50 [3] of 6.72.
In the case of `CN1CCN(C(=O)CN(c2cc(C#CC(C)(C)C)sc2C(=O)O)C(=O)[C@H]2CC[C@H](C)CC2)CC1`, the pEC50 [3] was 8.22.
In the case of `CC(C)(C)C#Cc1cc(N(CC(=O)N2CC(O)C2)C(=O)[C@H]2CC[C@H](C)CC2)c(C(=O)O)s1`, the pEC50 [3] was 7.18.
Molecule `CC(C)NC(=O)CN(c1cc(C#CC(C)(C)C)sc1C(=O)O)C(=O)[C@H]1CC[C@H](C)CC1` has a pEC50 [3] of 6.80.
Work on `CC(C)[C@@H](C(=O)N(C)C)N(c1cc(C#CC(C)(C)C)sc1C(=O)O)C(=O)[C@H]1CC[C@H](C)CC1` yielded a pEC50 [3] of 7.29.
With `CN(C)CCN(C)C(=O)CN(c1cc(C#CC(C)(C)C)sc1C(=O)O)C(=O)[C@H]1CC[C@H](C)CC1` the pEC50 [3] was 8.05.
For `CC(C)(C)C#Cc1cc(N(C(=O)[C@H]2CC[C@H](C)CC2)[C@H]2CC[C@H](O)CC2)c(C(=O)O)s1` [Lomibuvir], the pEC50 [1] was 7.28 and the pEC50 [3] was 8.15.
